Results published in US6020330A, “Hypolipidemic 1,4-benzothiazepine-1,1-dioxides” (Hoechst Aktiengesellschaft, priority 1997, dated 2000).

Target: T1, ileal transporter of the rabbit (RIBAT) (Oryctolagus cuniculus, UniProt Q28727)
T1 construct: contained the total protein-coding region of the RIBAT; expressed in transfected cells; host or cells: CHO cells, stably transfected with pRIBAT8 (pcDNA1neo vector), G418-selected clonal line
T1 sequence (Q28727 1-347): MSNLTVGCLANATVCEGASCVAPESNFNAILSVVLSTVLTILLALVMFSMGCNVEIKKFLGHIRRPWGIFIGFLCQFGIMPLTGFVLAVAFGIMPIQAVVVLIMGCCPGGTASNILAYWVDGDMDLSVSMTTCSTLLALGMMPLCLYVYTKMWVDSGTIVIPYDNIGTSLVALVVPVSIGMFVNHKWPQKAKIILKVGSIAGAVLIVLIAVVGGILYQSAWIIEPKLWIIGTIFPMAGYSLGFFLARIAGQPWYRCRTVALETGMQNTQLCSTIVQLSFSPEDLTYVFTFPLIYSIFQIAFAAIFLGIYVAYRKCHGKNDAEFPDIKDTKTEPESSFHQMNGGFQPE
Assay: Inhibition of [24-14C]-taurocholic acid uptake in CHO/pRIBAT8 cells
Format: cell-based
Settings: 21° C., 30 minutes
Text: These were derivatives of the generally known "Chinese hamster ovary" (CHO) cell line, which on account of incorporated expression plasmids additionally produced sodium-dependent bile acid transporters. The first cell line (CHO/pRIBAT8) was in this case the ileal transporter of the rabbit (RIBAT), the second (CHO/pHIBAT8) the ileal transporter of the human (HIBAT) and the third (CHO/pHLBAT5) the hepatic transporter of the human. All plasmids were based on the standard plasmid pCDNA1neo, which as important elements has a cytomegaloviral promoter for the permanent expression of heterologous genes and a gene for the production of cell resistance against the substance G418.
The starting material for the production of the plasmid for the RIBAT-producing cell line (pRIBAT8) was total RNA of the terminal ileum of the rabbit. […]
For the preparation of the genetically modified cell lines, CHO cells were transfected with DNA from pRIBAT8, pHIBAT8 or pHLBAT5 and cells which developed resistance against the selection substance G418 were selectively additionally cultured by addition of the substance to the cell medium. […] They could thereby be easily differentiated from cells without intact bile acid transporters with the aid of a fluorescence microscope. […]

IC50: 70 nM
SMILES: CCCCC1(CC)CS(=O)(=O)c2cc(O[C@@H]3O[C@H](C(=O)O)[C@@H](O)[C@H](O)[C@H]3O)ccc2C(c2ccccc2)N1 (stereo partly shown) [Example 3]
